Data taken from the CheMixHub viscosity set.

Assay: xn = mol fraction of the nth substance listed

c1ccccc1 + CCCO
Settings	viscosity [mPa·s]
293.15 K, 101 kPa, x1 = 0.7	0.7259
295.15 K, 101 kPa, x2 = 0.0129	0.6231
295.15 K, 101 kPa, x2 = 0.01297	0.6234
295.15 K, 101 kPa, x2 = 0.02571	0.6203
295.15 K, 101 kPa, x2 = 0.0258	0.6203
295.15 K, 101 kPa, x2 = 0.02588	0.6203
295.15 K, 101 kPa, x2 = 0.03494	0.6193
295.15 K, 101 kPa, x2 = 0.04358	0.6193
295.15 K, 101 kPa, x2 = 0.06103	0.6204
295.15 K, 101 kPa, x2 = 0.1016	0.6265
295.15 K, 101 kPa, x2 = 0.2458	0.6758
295.15 K, 101 kPa, x2 = 0.5664	0.9778
295.15 K, 101 kPa, x2 = 0.9204	1.808
298.15 K, 100 kPa, x2 = 0.059	0.6108
298.15 K, 100 kPa, x2 = 0.1169	0.6226
298.15 K, 100 kPa, x2 = 0.2295	0.6135
298.15 K, 100 kPa, x2 = 0.2843	0.6582
298.15 K, 100 kPa, x2 = 0.3733	0.7116
298.15 K, 100 kPa, x2 = 0.5437	0.8989
298.15 K, 100 kPa, x2 = 0.6252	1.017
298.15 K, 100 kPa, x2 = 0.7044	1.166
298.15 K, 100 kPa, x2 = 0.7814	1.289
298.15 K, 100 kPa, x2 = 0.8563	1.469
298.15 K, 100 kPa, x2 = 0.9291	1.719
298.15 K, 101 kPa, x1 = 0.062	1.707
298.15 K, 101 kPa, x1 = 0.1398	1.471
298.15 K, 101 kPa, x1 = 0.295	1.132
298.15 K, 101 kPa, x1 = 0.388	0.988
298.15 K, 101 kPa, x1 = 0.4349	0.565
298.15 K, 101 kPa, x1 = 0.4661	0.887
298.15 K, 101 kPa, x1 = 0.5335	0.394
298.15 K, 101 kPa, x1 = 0.5337	0.805
298.15 K, 101 kPa, x1 = 0.6049	0.741
298.15 K, 101 kPa, x1 = 0.6086	0.4578
298.15 K, 101 kPa, x1 = 0.7128	0.657
298.15 K, 101 kPa, x1 = 0.806	0.626
298.15 K, 101 kPa, x1 = 0.89	0.604
298.15 K, 101.3 kPa, x1 = 0.1571	1.435
298.15 K, 101.3 kPa, x1 = 0.3573	1.018
298.15 K, 101.3 kPa, x1 = 0.5287	0.797
298.15 K, 101.3 kPa, x1 = 0.7516	0.637
298.15 K, 101.33 kPa, x1 = 0.1571	1.435
298.15 K, 101.33 kPa, x1 = 0.2757	1.167
298.15 K, 101.33 kPa, x1 = 0.3573	1.018
298.15 K, 101.33 kPa, x1 = 0.5287	0.797
298.15 K, 101.33 kPa, x1 = 0.6446	0.703
298.15 K, 101.33 kPa, x1 = 0.7516	0.637
298.15 K, 101.33 kPa, x1 = 0.8737	0.599
298.15 K, 101.33 kPa, x1 = 0.9369	0.592
298.15 K, 101.33 kPa, x2 = 0.2	0.622
303.15 K, 101 kPa, x1 = 0.062	1.522
303.15 K, 101 kPa, x1 = 0.1398	1.319
303.15 K, 101 kPa, x1 = 0.295	1.021
303.15 K, 101 kPa, x1 = 0.388	0.892
303.15 K, 101 kPa, x1 = 0.4661	0.808
303.15 K, 101 kPa, x1 = 0.5337	0.737
303.15 K, 101 kPa, x1 = 0.6049	0.68
303.15 K, 101 kPa, x1 = 0.7128	0.609
303.15 K, 101 kPa, x1 = 0.806	0.58
303.15 K, 101 kPa, x1 = 0.89	0.566
308.15 K, 100 kPa, x2 = 0.059	0.5422
308.15 K, 100 kPa, x2 = 0.1169	0.5507
308.15 K, 100 kPa, x2 = 0.2295	0.5825
308.15 K, 100 kPa, x2 = 0.2843	0.5616
308.15 K, 100 kPa, x2 = 0.3733	0.6014
308.15 K, 100 kPa, x2 = 0.5437	0.7483
308.15 K, 100 kPa, x2 = 0.6252	0.8508
308.15 K, 100 kPa, x2 = 0.7044	0.9663
308.15 K, 100 kPa, x2 = 0.7814	1.098
308.15 K, 100 kPa, x2 = 0.8563	1.267
308.15 K, 100 kPa, x2 = 0.9291	1.405
308.15 K, 101 kPa, x1 = 0.062	1.369
308.15 K, 101 kPa, x1 = 0.1398	1.182
308.15 K, 101 kPa, x1 = 0.295	0.921
308.15 K, 101 kPa, x1 = 0.388	0.81
308.15 K, 101 kPa, x1 = 0.4661	0.736
308.15 K, 101 kPa, x1 = 0.5337	0.678
308.15 K, 101 kPa, x1 = 0.6049	0.63
308.15 K, 101 kPa, x1 = 0.7128	0.566
308.15 K, 101 kPa, x1 = 0.806	0.541
308.15 K, 101 kPa, x1 = 0.89	0.527
308.15 K, 101.3 kPa, x1 = 0.1571	1.155
308.15 K, 101.3 kPa, x1 = 0.3573	0.834
308.15 K, 101.3 kPa, x1 = 0.5287	0.668
308.15 K, 101.3 kPa, x1 = 0.7516	0.552
308.15 K, 101.33 kPa, x1 = 0.1571	1.155
308.15 K, 101.33 kPa, x1 = 0.3573	0.834
308.15 K, 101.33 kPa, x1 = 0.5287	0.668
308.15 K, 101.33 kPa, x1 = 0.7516	0.552
313.15 K, 101 kPa, x1 = 0.062	1.225
313.15 K, 101 kPa, x1 = 0.1398	1.061
313.15 K, 101 kPa, x1 = 0.295	0.835
313.15 K, 101 kPa, x1 = 0.388	0.739
313.15 K, 101 kPa, x1 = 0.4661	0.674
313.15 K, 101 kPa, x1 = 0.5337	0.623
313.15 K, 101 kPa, x1 = 0.6049	0.582
313.15 K, 101 kPa, x1 = 0.7	0.5283
313.15 K, 101 kPa, x1 = 0.7128	0.528
313.15 K, 101 kPa, x1 = 0.806	0.503
313.15 K, 101 kPa, x1 = 0.89	0.493
318.15 K, 101 kPa, x1 = 0.062	1.103
318.15 K, 101 kPa, x1 = 0.1398	0.956
318.15 K, 101 kPa, x1 = 0.295	0.76
318.15 K, 101 kPa, x1 = 0.388	0.676
318.15 K, 101 kPa, x1 = 0.4661	0.617
318.15 K, 101 kPa, x1 = 0.5337	0.572
318.15 K, 101 kPa, x1 = 0.6049	0.539
318.15 K, 101 kPa, x1 = 0.7128	0.493
318.15 K, 101 kPa, x1 = 0.806	0.47
318.15 K, 101 kPa, x1 = 0.89	0.463
323.15 K, 101.33 kPa, x2 = 0.2	0.44

c1ccccc1 + CO
viscosity [mPa·s]
Settings	293.15 K	298.15 K	303.15 K	313.15 K	323.15 K
101 kPa, x1 = 0.1598	–	–	0.564	0.491	0.411
101 kPa, x1 = 0.3449	–	–	0.563	0.507	0.405
101 kPa, x1 = 0.4474	–	–	0.559	0.478	0.414
101 kPa, x1 = 0.7425	–	–	0.546	0.469	0.411
101 kPa, x1 = 0.8277	–	–	0.54	0.49	0.413
101 kPa, x2 = 0.0504	–	0.581	–	–	–
101 kPa, x2 = 0.1	0.622	0.563	–	–	–
101 kPa, x2 = 0.152	0.615	–	0.534	0.468	0.416
101 kPa, x2 = 0.1998	–	0.553	–	–	–
101 kPa, x2 = 0.2	0.613	–	–	–	–
101 kPa, x2 = 0.272	0.613	–	0.532	0.461	0.414
101 kPa, x2 = 0.2982	–	0.56	–	–	–
101 kPa, x2 = 0.4	0.619	0.561	–	–	–
101 kPa, x2 = 0.444	0.619	–	0.536	0.469	0.415
101 kPa, x2 = 0.5	–	0.566	–	–	–
101 kPa, x2 = 0.6	0.626	0.565	–	–	–
101 kPa, x2 = 0.632	0.624	–	0.535	0.467	0.414
101 kPa, x2 = 0.7	–	0.56	–	–	–
101 kPa, x2 = 0.766	0.619	–	0.534	0.466	0.412
101 kPa, x2 = 0.8	0.626	–	–	–	–
101 kPa, x2 = 0.8009	–	0.557	–	–	–
101 kPa, x2 = 0.9	0.61	–	–	–	–
101 kPa, x2 = 0.901	0.604	–	0.527	0.464	0.411
101 kPa, x2 = 0.9013	–	0.553	–	–	–
101 kPa, x2 = 0.95	–	0.551	–	–	–
101.33 kPa, x1 = 0.04357	0.59	–	0.5121	0.4473	0.3935
101.33 kPa, x1 = 0.0572	–	–	0.562	0.5	0.415
101.33 kPa, x1 = 0.1598	–	–	0.564	0.491	0.411
101.33 kPa, x1 = 0.2216	0.6132	–	0.528	0.4585	0.4016
101.33 kPa, x1 = 0.2552	–	–	0.56	0.505	0.418
101.33 kPa, x1 = 0.3449	–	–	0.563	0.507	0.405
101.33 kPa, x1 = 0.4216	0.6197	–	0.5315	0.4613	0.4039
101.33 kPa, x1 = 0.4474	–	–	0.559	0.478	0.414
101.33 kPa, x1 = 0.603	0.6164	–	0.5296	0.4593	0.4034
101.33 kPa, x1 = 0.7425	–	–	0.546	0.469	0.411
101.33 kPa, x1 = 0.7816	0.6138	–	0.5278	0.4611	0.4073
101.33 kPa, x1 = 0.8277	–	–	0.54	0.49	0.413
101.33 kPa, x1 = 0.9285	0.6252	–	0.5399	0.4736	0.4198

CN(C)C=O + CCCO
viscosity [mPa·s], 101 kPa
Settings	293.15 K	298.15 K	303.15 K	308.15 K	313.15 K	318.15 K	323.15 K
x1 = 0.4512	–	1.232	–	–	–	–	–
x1 = 0.5	–	–	0.893	–	0.764	–	0.655
x2 = 0.1001	–	–	0.7821	0.7366	0.6955	0.6569	0.6217
x2 = 0.1007	0.9529	–	0.8538	–	0.7741	–	0.7068
x2 = 0.2001	–	–	0.8111	0.7618	0.7167	0.6752	0.638
x2 = 0.2026	0.9902	–	0.8826	–	0.7929	–	0.7215
x2 = 0.2518	1.01	–	0.8911	–	0.7973	–	0.7241
x2 = 0.3	–	–	0.8451	0.7912	0.742	0.698	0.657
x2 = 0.3548	1.03	–	0.9064	–	0.8052	–	0.7257
x2 = 0.3967	–	–	0.8868	0.8273	0.7741	0.7256	0.6801
x2 = 0.5002	–	–	0.9267	0.8623	0.8042	0.7517	0.7022
x2 = 0.5007	1.109	–	0.9588	–	0.84	–	0.7422
x2 = 0.5008	1.127	–	0.977	–	0.8569	–	0.7593
x2 = 0.5981	–	–	–	–	0.8728	–	–
x2 = 0.5982	1.175	–	1.01	–	–	–	0.7643
x2 = 0.6	–	–	0.9903	0.9169	0.8505	0.7912	0.7367
x2 = 0.6981	1.315	–	1.112	–	0.9521	–	0.8239
x2 = 0.7001	–	–	1.076	0.9904	0.9148	0.8466	0.784
x2 = 0.75	1.368	–	1.146	–	0.9688	–	0.8261
x2 = 0.7989	1.476	–	1.231	–	1.037	–	0.8829
x2 = 0.8001	–	–	1.204	1.1	1.008	0.9264	0.8521
x2 = 0.8981	1.734	–	1.412	–	1.164	–	0.9688
x2 = 0.9001	–	–	1.403	1.272	1.153	1.074	0.955
